Assay results from patent US7977352B2, “Triazolopyridine compounds useful for the treatment of degenerative and inflammatory diseases” (Galapagos NV, priority 2006, dated 2011).

Key:
[1] = target: T1, TAK1-TAB1 fusion protein (Homo sapiens, UniProt O43318); assay: In vitro TAK1 kinase assay; assay type: biochemical; settings: casein substrate, [33P]-γ-ATP, 90 minutes at 30° C., semi-quantitative score, read-out: POTENCY TAK1 (MAP3K7)
T1 construct: purchased Upstate 14-600
T1 sequence (O43318 with tags, fused parts or gaps limits assumed): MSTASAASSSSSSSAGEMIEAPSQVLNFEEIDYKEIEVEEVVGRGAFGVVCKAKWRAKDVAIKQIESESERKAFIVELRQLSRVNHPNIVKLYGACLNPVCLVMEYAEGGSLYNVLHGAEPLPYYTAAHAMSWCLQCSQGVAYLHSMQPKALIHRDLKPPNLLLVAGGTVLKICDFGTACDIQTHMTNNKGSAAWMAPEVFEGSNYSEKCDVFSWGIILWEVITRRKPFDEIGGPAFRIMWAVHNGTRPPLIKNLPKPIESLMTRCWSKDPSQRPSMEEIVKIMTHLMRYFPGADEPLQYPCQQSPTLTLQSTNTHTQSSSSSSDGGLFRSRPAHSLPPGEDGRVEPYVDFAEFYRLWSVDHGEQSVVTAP
Procedure: For assessing TAK1 inhibition, active TAK1-TAB1 fusion protein was used from Upstate (Cat. No, 14-600). Kinase reactions are set up in 96-well polypropylene plates in 25 μL containing 0.5 mU TAK1-TAB1 fusion protein, 5mM ATP, 0.01 μCi/μL [^33P]-γ-ATP, 0.1 mg/mL casein substrate in 1× reaction buffer containing 10 mM MOPS pH 7.0, 1 mM EDTA.
Starting from the compound master stocks (all at 10 mM concentration in 100% DMSO) a 3-fold serial dilution is made in 96-well plates in 100% DMSO. Plates are further diluted […] in H2O containing 3.5% DMSO, to obtain an intermediate work stock with compounds at 5× the final assay concentration in 5% DMSO.
5 μL of the intermediate stock is transferred into V-bottom 96 well polypropylene plates and 11 μL of Enzyme mix is added. Enzyme mix is made by combining 5 μL 5× reaction buffer ([…] pH 7.0, 1 mM EDTA), 5 μL casein (Sigma) diluted in H20 to 0.5 mg/mL and 1 μL of TAK1-TAB1 fusion protein that was prediluted to 0.5 mU/μL in 1× enzyme dilution buffer (20 mM MOPS pH 7.0, 0.1 mM EDTA, 0.01% Brij-35, 5% glycerol, 1 mM DTT, 1 mg/ml BSA).
The reactions are started by the addition of 9 μL of mixture containing ATP (20.83 uM) and [^33P]-γ-ATP (0.028 μCi/μL).
The assay is stopped 90 minutes after incubation at 30° C. by the addition of 25 μL phosphoric acid (150 mM). The label incorporated into the casein substrate is separated from labeled unincorporated ATP by filtration onto 96-well filter plates using a harvester device. After 6 washes with 75 mM phosphoric acid, the bottom of the filter plates are sealed, and incorporated label is quantified after addition of 40 μL scintillation fluid using TopCount.

[2] = test system: MMP1 expression by activated synovial fibroblasts (RASFs); assay: MMP assay: MMP1 expression by RASFs triggered with TNF-α (MMP1 ELISA); assay type: cell-based; settings: Fibroblast, 48 h, TNF-α trigger 10 ng/mL, semi-quantitative score, read-out: REDUCTION MMP1/TNFa
Procedure: A 384-well format ELISA for measurement of MMP1 is developed. Various primary antibodies are tested, as well as various ELISA protocols. The following protocol is developed and validated to measure MMP1 levels in SF supernatant in 384 well plates: white Lumitrac 600 384 well plates (Greiner) are coated with 2 μg/mL anti-MMP1 antibody MAB1346 (Chemicon). The antibody is diluted in buffer 40 (1.21 g Tris base (Sigma), 0.58 g NaCl (Calbiochem) and 5 mL 10% NaN3 (Sigma) in 1 L milliQ water and adjusted to pH 8.5). After overnight incubation at 4° C., plates are washed with PBS (80 g NaCl, 2 g KCl (Sigma), 11.5 g Na2HPO4.7H2O and 2 g KH2PO4 in 10 L milliQ; pH 7.4) and blocked with 100 μL/well Casein buffer (2% Casein (VWR International) in PBS). Next day, casein buffer is removed from ELISA plates and replaced by 50 μL/well EC buffer (4 g casein, 2.13 g Na2HPO4 (Sigma), 2 g bovine albumin (Sigma), 0.69 g NaH2PO4.H2O (Sigma), 0.5 g CHAPS (Roche), 23.3 g NaCl, 4 mL 0.5 M EDTA pH 8 (Invitrogen), 5 mL 10% NaN3 in 1 L milliQ and adjusted to pH 7.0). 0.25 mM DTT (Sigma) is added to the thawed sample plates. After removal of the EC buffer, 20 μL of sample is transferred to the ELISA plates. After overnight incubation at 4° C. plates are washed twice with PBS and once with PBST (PBS with 0.05% Tween-20 (Sigma)) and incubated with 35 μL/well biotinylated anti-MMP1 antibody solution (R&D). This secondary antibody is diluted in buffer C (0.82 g NaH2PO4.H2O, 4.82 g Na2HPO4, 46.6 g NaCl, 20 g bovine albumin and 4 mL 0.5M EDTA pH 8 in 2 L milliQ and adjusted to pH 7.0) at a concentration of 5 μg/mL. After 2 h of incubation at RT, plates are washed as described above and incubated with 50 μL/well streptavidin-HRP conjugate (Biosource). Streptavidin-HRP conjugate is diluted in buffer C at a concentration of 0.25 μg/mL. After 45 min, plates are washed as described above and incubated for 5 min with 50 μL/well BM Chem ELISA Substrate (Roche). Readout is performed on the Luminoscan Ascent Luminometer (Labsystems) with an integration time of 200 msec or with an Envision reader (Perkin Elmer).
SFs were acquired at passage 1 from a commercial supplier (Cell applications, Inc.). SFs are cultured in DMEM supplemented with 10% heat-inactivated FBS, 1× penicillin/streptomycin (Invitrogen) at 37° C., 10% CO2 until passage 6. Aliquots of the cells are frozen and cryopreserved in liquid nitrogen. Starting from a cryopreserved aliquot, cells are further expanded by sub-culturing cells at 1/3 ratio every week. Cells between passage 10 and 12 are routinely used in compound testing according to following protocol.
Starting from the compound master stocks (all at 10 mM concentration in 100% DMSO) a 3-fold serial dilution is made in 96-well plates in 100% DMSO. Then, plates are further diluted 45-fold in M199 medium supplemented with 1% heat-inactivated FBS to obtain a intermediate work stock.
At day 1, RASFs are seeded in 96 well plates (flat bottom, tissue culture treated, Greiner) at a density of 3000 cells/well in complete synovial growth medium (Cell Applications). Day 5, the medium is completely removed from the cells, and replaced by 81 μL of M199 medium supplemented with 1% heat-inactivated FBS followed by addition of 10 μL compound out of the intermediate work stock. After an incubation period of 90 minutes, which allows the compounds to equilibrate and enter the cells, cells are stimulated with either TNF-α or ‘complex trigger’. TNF-α trigger is added in a volume of […] to obtain final concentration of 10 ng/mL. For that, TNF-α stock (PeproTech) at 10 μg/mL was diluted to 100 ng/mL TNF-a in M199 medium supplemented with 1% FBS. ‘Complex trigger’ mix is added in a volume of 20 μL to obtain a final concentration of 12.5%. For that, ‘complex trigger’ mix, is diluted to 80% with M199 medium supplemented with 1% FBS. […]

[3] = test system: MMP1 expression by activated SFs; assay: MMP assay proof of principle: MMP1 produced by complex trigger activated SFs; assay type: cell-based; settings: Homo sapiens, supernatant of THP-1 cells treated with TNF-a (50% diluted), 48 hrs, FIG. 3, read-out: IC50 value, reduction of MMP1 expression by SFs
Procedure: A 384-well format ELISA for measurement of MMP1 is developed. Various primary antibodies are tested, as well as various ELISA protocols. The following protocol is developed and validated to measure MMP1 levels in SF supernatant in 384 well plates: white Lumitrac 600 384 well plates (Greiner) are coated with 2 μg/mL anti-MMP1 antibody MAB1346 (Chemicon). The antibody is diluted in buffer 40 (1.21 g Tris base (Sigma), 0.58 g NaCl (Calbiochem) and 5 mL 10% NaN3 (Sigma) in 1 L milliQ water and adjusted to pH 8.5). After overnight incubation at 4° C., plates are washed with PBS (80 g NaCl, 2 g KCl (Sigma), 11.5 g Na2HPO4.7H2O and 2 g KH2PO4 in 10 L milliQ; pH 7.4) and blocked with 100 μL/well Casein buffer (2% Casein (VWR International) in PBS). Next day, casein buffer is removed from ELISA plates and replaced by 50 μL/well EC buffer (4 g casein, 2.13 g Na2HPO4 (Sigma), 2 g bovine albumin (Sigma), 0.69 g NaH2PO4.H2O (Sigma), 0.5 g CHAPS (Roche), 23.3 g NaCl, 4 mL 0.5 M EDTA pH 8 (Invitrogen), 5 mL 10% NaN3 in 1 L milliQ and adjusted to pH 7.0). 0.25 mM DTT (Sigma) is added to the thawed sample plates. After removal of the EC buffer, 20 μL of sample is transferred to the ELISA plates. […] Readout is performed on the Luminoscan Ascent Luminometer (Labsystems) with an integration time of 200 msec or with an Envision reader (Perkin Elmer). […]

Row | Structure (SMILES) | IC50 [1] | IC50 [3] | IC50 [2]
1 | c1nc2c(Nc3ccc(N4CCOCC4)cc3)ccc(-c3ccc4cc[nH]c4c3)n2n1 [Example 52, 5-(1H-indol-6-yl)-N-(4-morpholin-4-ylphenyl)[1,2,4]triazolo[1,5-a]pyridin-8-amine] | > 10 µM |  | > 10 µM
2 | COc1ncc(-c2ccc(Nc3ccc(N4CCOCC4)cc3)c3ncnn23)c(OC)n1 [Example 54, 5-(2,4-dimethoxypyrimidin-5-yl)-N-(4-morpholin-4-ylphenyl)[1,2,4]triazolo[1,5-a]pyridin-8-amine] | > 10 µM |  | > 10 µM
3 | CC(C)N1CCN(c2ccc(Nc3ccc(-c4c[nH]c(=O)[nH]c4=O)n4ncnc34)cc2)CC1 [Example 55, 5-(8-{[4-(4-isopropylpiperazin-1-yl)phenyl]amino}[1,2,4]triazolo[1,5-a]pyridin-5-yl)pyrimidine-2,4(1H,3H)-dione] | > 10 µM |  | > 10 µM
4 | COc1ncc(-c2ccc(Nc3ccc(N4CCN(C(C)C)CC4)cc3)c3ncnn23)c(OC)n1 [Example 56, 5-(2,4-dimethoxypyrimidin-5-yl)-N-[4-(4-isopropylpiperazin-1-yl)phenyl][1,2,4]triazolo[1,5-a]pyridin-8-amine] | > 10 µM |  | > 10 µM
5 | C[C@@H]1C[C@H]2[C@@H]3CCC4=CC(=O)C=C[C@]4(C)[C@@]3(F)[C@@H](O)C[C@]2(C)[C@@]1(O)C(=O)CO [dexamethasone] |  | ~0.001 µM | 

Further lines, with some results ahead:

Row | IC50 [1] | IC50 [3] | Structure (SMILES) | IC50 [2]
6 | > 10 µM |  | CC(C)N1CCN(c2ccc(Nc3ccc(-c4ccc5[nH]ccc5c4)n4ncnc34)cc2)CC1 [Example 51, 5-(1H-indol-5-yl)-N-[4-(4-isopropylpiperazin-1-yl)phenyl][1,2,4]triazolo[1,5-a]pyridin-8-amine] | > 10 µM
7 | > 10 µM |  | CC(C)N1CCN(c2ccc(Nc3ccc(-c4ccc5cc[nH]c5c4)n4ncnc34)cc2)CC1 [Example 53, 5-(1H-indol-6-yl)-N-[4-(4-isopropylpiperazin-1-yl)phenyl][1,2,4]triazolo[1,5-a]pyridin-8-amine] | > 10 µM
8 | < 0.5 µM |  | C[C@@H]1CN(c2ccc(Nc3ccc(-c4cc[nH]c(=O)c4)n4ncnc34)cc2)C[C@H](C)N1C [Example 57, 4-[8-({4-[(3R,5S)-3,4,5-trimethylpiperazin-1-yl]phenyl}amino)[1,2,4]triazolo[1,5-a]pyridin-5-yl]pyridin-2(1H)-one] | 1 to 5 µM
